The results in this text go back to paper PMC5729429, “Gimatecan exerts potent antitumor activity against gastric cancer in vitro and in vivo via AKT and MAPK signaling pathways” (Journal of Translational Medicine, 2017).

pIC50: −log10 of the molar value. Structures can show the parent of a compound that is named as a salt.

The test system of one assay is SNU-1 cells. In words: Cell viability assay (CCK-8), SNU-1. In kind it is cell-based. The following applies: Homo sapiens, SNU1, Fig. 1a 48 h exposure, 0–1 µM, read-out: IC50 antiproliferative effect. On the procedure: (§1) Human GC cell lines SNU-1, HGC27 and MGC803 were purchased from Peking Union Medical College, and the NCI-N87 cell line was a gift from You-yong Lv, Ph.D. (Peking University Cancer Hospital and Institute). Cells were cultured in RPMI 1640 medium and Dulbecco’s Modified Eagle Medium (Gibco-BRL, MD, USA), respectively, supplemented with 10% fetal bovine serum (Gibco-BRL), 100 U/ml penicillin (Gibco-BRL) and […] streptomycin (Gibco-BRL). Cells were incubated in a humidified incubator (37 °C) supplemented with 5% CO2.
(§2) SNU-1, HGC27, MGC803 and NCI-N87 cells (5000 cells/well) were seeded in 96-well plates and incubated overnight in complete medium, followed by exposure to gimatecan (0–1 µM) or irinotecan (0–1 µM) for 24, 48, or 72 h. Cell viability was measured using a Cell Counting Kit-8 (Dojindo, Kumamoto, Japan) according to the manufacturer’s instructions. Absorbance at 450 nm was measured using a microplate spectrophotometer. All experiments were repeated at least three times.

The test system of a further assay is HGC27 cells. Briefly: Cell viability assay (CCK-8), HGC27. Format: cell-based. The following applies: Homo sapiens, HGC-27, Fig. S1A 48 h exposure, 0–1 µM, read-out: IC50 antiproliferative effect. On the procedure:
as §1, §2

The test system of the next assay is NCI-N87 cells. Briefly: Cell viability assay (CCK-8), NCI-N87. Format: cell-based. The following applies: Homo sapiens, Fig. 1a 48 h exposure, 0–1 µM, read-out: IC50 antiproliferative effect. Here is the method:
as §1, §2

The next assay relates to Ki-67 in GC PDX tissues. Briefly: Immunohistochemistry staining of Ki-67 in xenograft tissues. Format: in vivo, NOD/SCID mice. The following applies: day 22 of treatment. Here is the method: After mice were sacrificed, xenograft tissues were isolated, and formalin-fixed paraffin embedded (FFPE) tissue sections were prepared. After deparaffinization, hydration, endogenous peroxidase treatment, and retrieval, 4-μm-thick FFPE sections were incubated with primary antibodies (1:100) overnight at 4 °C. The signal was assayed after incubation with IgG-HRP polymer (ZSGB-BIO, Beijing, China) and diaminobenzidine substrate. Sections were interpreted by pathologists from the Department of Pathology of Peking University Cancer Hospital who were blinded to this study. The scoring standard of Ki-67 was consistent with a previous report.
A PDX model was established by subcutaneously transplanting tumor tissues of a patient into NOD/SCID mice and PDX 1–5 indicated PDX models from 5 different GC patients. PDX tissues were subcutaneously inoculated into mice, and when the tumor size reached 150–250 mm^3, mice (n = 5 in each group) were treated with buffer control or inhibitors. Tumor volumes were presented as mean ± SD. The antitumor activity is depicted by tumor growth inhibition (TGI). […] (ΔT = tumor volume change of the drug-treated group, ΔC = tumor volume change of the control group on the final day of the study). *p < 0.05, **p < 0.01, ***p < 0.001. b Immunohistochemical staining for Ki-67 of xenografts on day 22 of treatment from four PDX models. The ki-67 index, marker of cell proliferation, was calculated as the proportion of positive tumor cell nuclei in all tumor cells examined and labeled in red in the images. Scale bar represents 100 µm TEXT PRINTED IN THE PICTURE: (b) Vehicle: PDX 2: 100%; PDX 3: 70%; PDX 4: 70%; PDX 5: 40% | (b) Irinotecan: PDX 2: 60%; PDX 3: 70%; PDX 4: 60%; PDX 5: 50% | (b) Gimatecan: PDX 2: 60%; PDX 3: 10%; PDX 4: 40%; PDX 5: 10% DOUBTS OF THE COPYIST ABOUT THIS PICTURE: Vehicle, PDX 3: 70% or 20% (blurred red print on the image) / Vehicle, PDX 4: 70% or 20% / Vehicle, PDX 5: 40%, first digit blurred / Irinotecan, PDX 2: 60% or 80% or 50% / Irinotecan, PDX 3: 70% or 20% / Irinotecan, PDX 4: 60% or 50% or 80% / Irinotecan, PDX 5: 50% or 60% or 30% / Gimatecan, PDX 2: 60% or 50% or 80% / Gimatecan, PDX 4: 40%, first digit blurred / The measure of the percentages in panel b is not printed in the picture

With `CC[C@@]1(O)C(=O)OCc2c1cc1n(c2=O)Cc2c-1nc1ccccc1c2/C=N/OC(C)(C)C` [Gimatecan, 7-t-butoxyiminomethylcamptothecin], the negative-log IC50 (pIC50) in the assay with SNU-1 cells was 8.71; in the assay with HGC27 cells, 8.79; with NCI-N87 cells it was 7.05. For the same compound, the “Ki-67 (%)” value in the assay on Ki-67 in GC PDX tissues (PDX model 2, control 100) was determined as 60%; in the assay on Ki-67 in GC PDX tissues (PDX model 3, control 70), 10%; in the assay with Ki-67 in GC PDX tissues (PDX model 4, control 70) it was 40%; in the assay on Ki-67 in GC PDX tissues (PDX model 5, control 40) it was 10%.
`CCc1c2c(nc3ccc(OC(=O)N4CCC(N5CCCCC5)CC4)cc13)-c1cc3c(c(=O)n1C2)COC(=O)[C@]3(O)CC` [Irinotecan, irinotecan hydrochloride]: the pIC50 is 5.49 in the assay on SNU-1 cells, 6.82 in the assay with HGC27 cells and 6.85 with NCI-N87 cells. Also, the “Ki-67 (%)” value in the assay with Ki-67 in GC PDX tissues (PDX model 2, control 100) came out at 60%; in the assay with Ki-67 in GC PDX tissues (PDX model 3, control 70), 70%; in the assay on Ki-67 in GC PDX tissues (PDX model 4, control 70), 60%; in the assay with Ki-67 in GC PDX tissues (PDX model 5, control 40), 50%.
